Entries after “also recorded” stand apart in the source; their conditions may differ.

Results on 4 compounds are retold here after patent US10723702B2, “Photocrosslinking reagents and methods of use thereof” (Northwestern University, priority 2015, dated 2020).

One data set concerns UbcH7/E6AP interaction. In words: Ubiquitin transfer from alkylated UbcH7 CΔS-Ub oxyester to E6AP HECT. It counts as biochemical. Particulars: UbcH7-Ub oxyester 5 μM, E6AP-HECT 5 μM, PBS(B), 20 hours, room temperature. As to the method:
(§1) FIGS. 5A-C. Crosslinker-modified UbcH7 charged with ubiquitin. UbcH7 C86S-Ub oxyester interacts with E6AP to transfer ubiquitin. (A.) Each alkylated mutant is competent to form an UbcH7 C86S-Ub oxyester except when the catalytic cysteine C86 is alkylated with crosslinker (lane 9). UbcH7 mutants alkylated by crosslinker 1 at the indicated residue (5 μM) were incubated with Ube1 (200 nM), ubiquitin (10 μM) in the dark at 37° C. for 15 hours in 25 mM HEPES pH 7.5, 50 mM NaCl, 10 mM MgCl2, 1 mM DTT with or without ATP (185 μM). Reactions were quenched with 6× Laemmli buffer with β-ME and incubated at room temperature for 5 minutes without boiling. The “*” marks a faint GST impurity. […] (C.) UbcH7 CΔS-Ub oxyester alkylated with crosslinker transfers ubiquitin to E6AP HECT (compare to FIG. 2B where E6AP HECT is a single band). […] UbcH7-Ub oxyester (5 μM) was incubated with or without E6AP-HECT (5 μM) in PBS(B) for 20 hours at room temperature. Reactions were quenched with 6× Laemmli buffer with β-ME and incubated at room temperature for 5 minutes without boiling.

Data set [1] has as its system E6AP HECT domain. In words: Photocrosslinking of crosslinker-alkylated UbcH7 to E6AP HECT (365 nm, SDS-PAGE/western blot). It is filed as biochemical. Particulars: for Crosslinking of E6AP by UbcH7 CΔS F63A mutants or their Ub oxyesters bearing crosslinker: F63A negative control. As to the method: (§2) FIG. 4. […] UbcH7 CΔS E93C-2 or UbcH7 CΔS E93C-3 (10 μM final concentration) was incubated with E6AP-HECT (10 μM final concentration) in PBS(B) with 6 μM Tween-20 and 1 mM DTT. After keeping samples in the dark or irradiating at 365 nm for 10 minutes, they were quenched with 6× Laemmli buffer and β-mercaptoethanol (β-ME) and then boiled at 95° C. for 5 minutes. Covalently crosslinked protein complexes were resolved by SDS-PAGE and visualized by western blot and coomassie.
(§3) E6AP HECT was exchanged into crosslinker buffer with Zeba Spin Desalting Column and mixed (14 μM final concentration, 480 μg) with Tween-20 (6 μM), DTT (1 mM) in PBS(B) in a 1.5 mL tube. The reaction mixture was then taken to a darkened room where alkylated UbcH7 (14 μM, final concentration, 203 μg) was added (final volume of reaction mixture was 790 μL). The solution was mixed by pipetting and then transferred to four wells of a 96 well plate (Costar #3370). The plate was placed 3 cm below a UV lamp (UVP 3UV-38 3UV Lamp; 8 watt, 115V ˜60 Hz, 0.16 Amps) and irradiated at 365 nm for 10 minutes.
(§4) Following irradiation, the sample was mixed with Laemmli buffer and β-mercaptoethanol (230 mM final concentration) and boiled for five minutes. Crosslinking experiments in main text FIGS. 2, 3, and 4 were performed similarly with 20-50 μL total volume and with the indicated final concentrations of UbcH7 and E6AP.
(§5) Alkylation of UbcH7 cysteine mutants occurred readily by incubating 50-300 μM UbcH7 with 5 mM crosslinker 1 at room temperature for 90 minutes before removing free crosslinker with a desalting column. […] The UbcH7 CΔS-1 mutants (10 μM) were then mixed with the E6AP catalytic HECT domain (10 μM) and irradiated at 365 nm for 10 minutes in a 96-well plate. The reaction mixtures were then resolved with reducing SDS-PAGE and analyzed with anti-UbcH7 western blot. Photocrosslinking of UbcH7 to E6AP depends on the presence of both UV irradiation and E6AP (FIG. 6).
(In western blotting, separated proteins are transferred to a membrane and probed.)

Data set [2] concerns UbcH7. Briefly: UbcH7 C86S-Ub oxyester formation by crosslinker-alkylated UbcH7. It counts as biochemical, human. Particulars: oxyester formation and ubiquitin transfer retained. As to the method:
as §1

Data set [3] deals with UbcH7 mutants with a single cysteine available. In words: Alkylation conversion of UbcH7 mono-cysteine mutants by crosslinker, estimated by LCMS. It is filed as biochemical, human. Particulars: all mono-cysteine UbcH7 mutants; intact protein mass spectrometry. As to the method: Crosslinker in DMF (500 mM, 5 mM final concentration) was added to a UbcH7 cysteine mutant (100-200 μM in UbcH7 storage buffer; 1% DMF v/v final concentration). The resulting reaction mixture was mixed by pipetting, covered with aluminum foil, and rocked at room temperature (crosslinkers 1), or 4° C. (crosslinker 2 and 3) for 90 minutes. Immediately following, the solution was desalted/exchanged into PBS(B) with a Zeba Spin Desalting Column (7 kDa MWCO Pierce), frozen in N2(l), and stored at −80° C. The extent of alklylation was analyzed by LC-MS.
as §5

A short description of data set [4]: Acid cleavage of crosslinker in photocrosslinked UbcH7-E6AP complex. Particulars: pH 1, 55° C. It is filed as physicochemical. As to the method:
FIGS. 12A-E. Mass spectrometry protocol to identify crosslinker modifications on E6AP. A. The band corresponding to the crosslinked UbcH7-E6AP complex was excised and loaded to the denaturing electroelution device. After eluting complexes from the gels, photocrosslinked protein complexes were cleaved under acidic conditions, trypsinized, and then analyzed. B. Crosslinker 2 is cleavable at pH 1, 55° C. I. UbcH7-E6AP crosslink. II. E6AP-HECT. C. By conducting the acidic cleavage of photocrosslinked proteins in Tris-Glycine-SDS buffer, we avoided hydrolysis of the peptide backbone. I. UbcH7-E6AP crosslink. II. E6AP-HECT. III. UbcH7. D. MS^2 identification of E6AP Lys^847 modified by crosslinker 2. y-ions are highlighted. The full spectrum and b-ion identification can be found in Spectral Appendix I. E. Residue map of the E6AP C-terminus indicating sites of crosslinker modification by UbcH7 CΔS E93C-2/3 or UbcH7 CΔS E93C Ub-2/3.
Electroelution fractions in Tris-Glycine-SDS buffer were treated with 1 M aqueous HCl (protein sample/1 M HCl 4:1 v/v) to obtain pH 1 in a 1.5 microcentrifuge tube (one gel's worth of elution per tube). […]
To identify the photocrosslinked sites of E6AP, a mass spectrometry protocol was developed. […] Finally, protein was precipitated with acetone, digested with trypsin, and then analyzed the peptides with an Orbitrap Velos.

The target in data set [5] is T1, E6AP HECT domain (Homo sapiens, UniProt Q05086).
T1 construct: Underlined residues remain from the GST tag and are not part; GST (N, cleaved yes); made in house; host or cells: E. coli Rosetta (DE3) pLysS (E6AP HECT); E. coli BL21 (UbcH7)
T1 sequence (Q05086 with tags, fused parts or gaps): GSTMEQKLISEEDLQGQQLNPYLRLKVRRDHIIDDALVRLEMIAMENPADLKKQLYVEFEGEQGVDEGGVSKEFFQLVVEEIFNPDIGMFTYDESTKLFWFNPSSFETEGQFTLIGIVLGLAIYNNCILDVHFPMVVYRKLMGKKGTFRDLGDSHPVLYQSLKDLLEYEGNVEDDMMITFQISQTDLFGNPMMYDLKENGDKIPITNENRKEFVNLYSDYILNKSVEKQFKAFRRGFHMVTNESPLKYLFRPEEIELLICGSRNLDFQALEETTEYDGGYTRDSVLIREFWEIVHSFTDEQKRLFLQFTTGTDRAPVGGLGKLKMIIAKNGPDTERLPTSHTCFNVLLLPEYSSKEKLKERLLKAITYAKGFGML
In words: Photocrosslinking of crosslinker-alkylated UbcH7 to E6AP HECT (365 nm, SDS-PAGE/western blot). It counts as biochemical. Particulars: crosslinker on UbcH7 CΔS E93C 10 μM, E6AP-HECT 10 μM, 365 nm 10 minutes. How it is done:
as §2, §3, §4, §5

The target in data set [6] is T2, UbcH7 (Homo sapiens, UniProt P68036, C137S/C17S/C86S/E93C).
T2 construct: Underlined residues remain from the GST tag and are not part; GST (N, cleaved yes); made in house; host or cells: E. coli BL21 (UbcH7)
Briefly: UbcH7 C86S-Ub oxyester formation by crosslinker-alkylated UbcH7. It counts as biochemical. Particulars: crosslinker on UbcH7 CΔS E93C; Ube1, ubiquitin, ATP, 37° C., 15 hours. As to the method:
as §1

Another data set has as its target T3, E6AP-HECT (Homo sapiens, UniProt Q05086).
T3 sequence (Q05086 495-852 isoform Q05086-2 limits assumed): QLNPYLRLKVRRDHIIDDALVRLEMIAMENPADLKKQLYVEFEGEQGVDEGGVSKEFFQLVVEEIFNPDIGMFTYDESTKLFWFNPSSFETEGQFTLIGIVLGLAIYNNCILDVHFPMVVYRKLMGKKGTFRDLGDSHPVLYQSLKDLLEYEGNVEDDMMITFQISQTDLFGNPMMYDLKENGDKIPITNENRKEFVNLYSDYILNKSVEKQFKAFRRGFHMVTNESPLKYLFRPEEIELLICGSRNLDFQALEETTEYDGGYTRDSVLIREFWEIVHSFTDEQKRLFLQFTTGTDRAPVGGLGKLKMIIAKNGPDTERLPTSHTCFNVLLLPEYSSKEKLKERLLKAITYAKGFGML
Particulars: read-out: Binding affinity Kd for E6AP-HECT; cited from earlier work.

T2 sequence (P68036 with tags, fused parts or gaps C17S/C86S/E93C/C137S): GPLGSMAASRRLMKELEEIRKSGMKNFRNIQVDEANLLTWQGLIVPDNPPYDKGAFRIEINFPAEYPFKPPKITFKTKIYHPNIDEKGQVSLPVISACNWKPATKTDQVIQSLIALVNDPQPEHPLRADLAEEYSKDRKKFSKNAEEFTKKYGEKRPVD

As to `CC1(CCNC(=O)CI)N=N1` [Crosslinker 1], the “Interference of crosslinker with UbcH7/E6AP interaction (ubiquitin transfer to E6AP HECT)” value in the data set on UbcH7/E6AP interaction is on record as “does not interfere with the UbcH7/E6AP interaction”. Also, the “Crosslinking of E6AP by UbcH7 CΔS F63A mutants or their Ub oxyesters bearing crosslinker” value in the data set with E6AP HECT domain [1] is recorded as “did not crosslink E6AP”. In the data set with E6AP HECT domain [1] (crosslinker placed at UbcH7 CΔS E93C or catalytic cysteine Cys86, 10 μM each, 365 nm 10 minutes), the “Crosslinking efficiency by crosslinker position on UbcH7” value is “most efficient crosslinking”. The “Effect of mutagenesis and alkylation with crosslinker on E2 enzyme structure” value (“Effect of mutagenesis and alkylation” for short) in the data set on UbcH7 [2] was “did not compromise the E2 enzyme structure”. In addition, the “Labeling (mono-alkylation) of UbcH7 cysteine mutants, in words” value (“Labeling (mono-alkylation)” for short) in data set [3] is “quantitatively labeled every UbcH7 cysteine mutant; also recorded: near quantitative mono-alkylation”.

Turning to `CC1(CCOS(=O)(=O)NC(=O)CI)N=N1` [Crosslinker 2], in data set [4], the “Cleavage of crosslinker under acidic conditions” value was “cleavable”. Also, the “Crosslinking of E6AP by UbcH7 CΔS F63A mutants or their Ub oxyesters bearing crosslinker” value in the data set on E6AP HECT domain [1] is given as “did not crosslink E6AP”. On E6AP HECT domain [5], the Photocrosslinking efficiency result is on record as “equal photocrosslinking efficiency”. Moreover, the “Effect of crosslinker on efficiency of UbcH7-Ub oxyester formation” value at UbcH7 [6] is listed as “does not affect the efficiency of UbcH7-Ub oxyester formation”. Further, the “Effect of mutagenesis and alkylation” value in the data set on UbcH7 [2] was “did not compromise the E2 enzyme structure”. The “Labeling (mono-alkylation)” value in data set [3] was “not as reactive with some of the mutants”.

On to `[2H]C([2H])([2H])C1(C([2H])([2H])COS(=O)(=O)NC(=O)CI)N=N1` [Crosslinker 3], for which the Photocrosslinking efficiency entry on E6AP HECT domain [5] is listed as “equal photocrosslinking efficiency”. Further, the “Effect of mutagenesis and alkylation” value with UbcH7 [2] is given as “did not compromise the E2 enzyme structure”. For the same compound, the “Labeling (mono-alkylation)” value in data set [3] is listed as “not as reactive with some of the mutants”.

With “UbcH7: E2 enzyme upstream of E6AP (SEQ ID NO: 2)”, the Kd with E6AP-HECT was 5 µM.

One may read the Kd as the constant that tells how readily two partners part at equilibrium.
